By IC50 is commonly meant the concentration at which inhibition is half-maximal.

Molecules are shown by their SMILES.

The record followed here is patent publication US11040028B2, “Penicinotam derivative, preparation method and use thereof” (OCEAN UNIVERSITY OF CHINA, priority 2017, dated 2021).

Common to all, as to assay type: cell-based
Assay [1] relates to human dermal fibroblasts CCC-ESF-1. The experiment in a line: Anti-fibrosis activity test: inhibition of proliferation of human dermal fibroblasts CCC-ESF-1 (CCK-8). Particulars: Fibroblast; human dermal fibroblasts CCC-ESF-1, CCK-8, 48 hours. A digest of the protocol:
(§1)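 Using CCK-8 colorimetry (450 nm), the study assessed growth inhibition after 48 h compound exposure; plating density was 2×10^4 cells/mL with 24 h attachment beforehand. IC50 was calculated from (1−Ai/Ao)×100%.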

In assay [2] the test system is human lung fibroblasts HFL1. In words: Anti-fibrosis activity test: inhibition of proliferation of human lung fibroblasts HFL1 (CCK-8). The conditions noted are these: Homo sapiens, HFL1, 48 h, human lung fibroblasts HFL1, CCK-8, 48 hours. In short, it runs like this:
as §1

Assay [3] relates to cardiac fibroblast RAT-iCell-C002. In words: Anti-fibrosis activity test: inhibition of proliferation of cardiac fibroblast RAT-iCell-C002 (CCK-8). The conditions noted are these: Cardiac fibroblast, 48 h, cardiac fibroblast RAT-iCell-C002, CCK-8, 48 hours. In short, it runs like this: as §1
In assay [4] the test system is human embryonic lung fibroblast IMR-90. The experiment in a line: Anti-fibrosis activity test: inhibition of proliferation of human embryonic lung fibroblast IMR-90 (CCK-8). Particulars: human embryonic lung fibroblast IMR-90, CCK-8, 48 hours. A digest of the protocol: as §1
Assay [5] relates to human hepatic stellate cells LX-2. In words: Anti-fibrosis activity test: inhibition of proliferation of human hepatic stellate cells LX-2 (CCK-8). The conditions noted are these: Homo sapiens, 48 h, human hepatic stellate cells LX-2, CCK-8, 48 hours. In short, it runs like this:
as §1

In the next assay the test system is NF-κB. In words: Immunological activity test: inhibition of NF-κB activity. The conditions noted are these: initial concentration of 30 μM; a/b isomers given as first/second symbol; read-out: IC50 (μM), inhibitory activity against NF-κB. In short, it runs like this:
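Parthenolide as positive control; starting test concentration 30 μM; inhibition of NF-κB activity analysed further to yield IC50.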

Assay [6] concerns mouse macrophages (RAW264.7). In words: Lipopolysaccharide-induced NO secretion in macrophages (Griess). Particulars: Mus musculus, RAW264.7, 24 h, RAW264.7, LPS 1 μg/ml, a/b isomers given as first/second symbol, read-out: IC50 (μM), inhibition of lipopolysaccharide-induced NO secretion in macrophages. In short, it runs like this:
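Indomethacin and resveratrol served as positive controls while compounds were tested across concentrations on LPS-stimulated (1 μg/ml, 24 h) RAW264.7 cells. NO output was quantified colorimetrically (Griess, 548 nm).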
(In general: Nitrite, measured by Griess reagent, commonly stands in for NO production.)

In the next assay the test system is BHK-21 cells. In words: Anti-fibrosis activity test: inhibition of BHK-21 cell proliferation (CCK-8). Particulars: Mesocricetus auratus, BHK-21, 48 h, CCK-8, 48 hours after administration. In short, it runs like this:
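BHK-21 cells seeded at 2×10^4 cells/mL, allowed to adhere 24 h at 37° C, 5% CO2, then exposed to compounds at graded concentrations in triplicate for 48 h. CCK-8 added for 2 h and absorbance read at 450 nm; inhibition rate taken as (1−Ai/Ao)×100% and IC50 fitted.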

Assay [7] deals with human fibrosarcoma cells HT-1080. The experiment in a line: Anti-fibrosis activity test: inhibition of proliferation of human fibrosarcoma cells HT-1080 (CCK-8). The conditions noted are these: Homo sapiens, HT-1080, 48 h, human fibrosarcoma cells HT-1080, CCK-8, 48 hours. In short, it runs like this: as §1

In the case of `CS(=O)(=O)Oc1c2c(nc3ccccc13)-c1cccn1C2=O` [Compound 650b, 10-oxo-10H-pyrrolizino[1,2-b]quinolin-9-yl methanesulfonate], the IC50 in assay [1] is 0.05 to 5 mM; in assay [2], 0.05 to 5 mM; in assay [3], 0.05 to 5 mM; in assay [4], 0.05 to 5 mM; in assay [5], 0.05 to 5 mM; in the assay on NF-κB, 1 to 10 µM. Besides, the IC50 in [6] is 1 to 10 µM; in the assay on BHK-21 cells, 0.05 to 5 mM; in assay [7] it was 0.05 to 5 mM.

Regarding `COCCn1c2c(c(=O)c3ccccc31)C(=O)n1cccc1-2` [Compound 652a, 4-(2-Methoxyethyl)-9H-pyrrolizino[1,2-b]quinoline-9,10(4H)-dione], the IC50 in [1] lay within 0.05 to 5 mM; in [2] it was 0.05 to 5 mM; in [3], 0.05 to 5 mM; in [4] it was 0.05 to 5 mM; in assay [5], 0.05 to 5 mM; with NF-κB, 1 to 10 µM. Moreover, the IC50 was in the range of 1 to 10 µM in [6], 0.05 to 5 mM in the assay with BHK-21 cells and 0.05 to 5 mM in assay [7].

As for `COCCOc1c2c(nc3ccccc13)-c1cccn1C2=O` [Compound 652b, 9-(2-methoxyethoxy)-10H-pyrrolizino[1,2-b]quinolin-10-one], the IC50 in assay [1] fell in the range of 0.05 to 5 mM; in [2], 0.05 to 5 mM; in [3], 0.05 to 5 mM; in assay [4] it was 0.05 to 5 mM; in assay [5] it was 0.05 to 5 mM; in the assay with NF-κB, 1 to 10 µM. Further, the IC50 in assay [6] lay in the range of 1 to 10 µM; with BHK-21 cells, 0.05 to 5 mM; in assay [7], 0.05 to 5 mM.

With `O=C1c2c(n(CCF)c3ccccc3c2=O)-c2cccn21` [Compound 653a, 4-(2-Fluoroethyl)-9H-pyrrolizino[1,2-b]quinoline-9,10(4H)-dione], the IC50 was 0.05 to 5 mM in [1]; 0.05 to 5 mM in assay [2]; 0.05 to 5 mM in assay [3]; 0.05 to 5 mM in [4]; 0.05 to 5 mM in assay [5]; 1 to 10 µM in the assay with NF-κB. Further, the IC50 in assay [6] lay in the range of 1 to 10 µM; in the assay on BHK-21 cells it was 0.05 to 5 mM; in [7], 0.05 to 5 mM.

Take `O=C1c2c(nc3ccccc3c2OCCF)-c2cccn21` [Compound 653b, 9-(2-fluoroethoxy)-10H-pyrrolizino[1,2-b]quinolin-10-one]: the IC50 was 0.05 to 5 mM in [1]; 0.05 to 5 mM in assay [2]; 0.05 to 5 mM in [3]; 0.05 to 5 mM in assay [4]; 0.05 to 5 mM in assay [5]; 1 to 10 µM in the assay on NF-κB. The IC50 in assay [6] lay within 1 to 10 µM; in the assay on BHK-21 cells, 0.05 to 5 mM; in [7], 0.05 to 5 mM.

Regarding `CCOC(=O)Cn1c2c(c(=O)c3ccccc31)C(=O)n1cccc1-2` [Compound 654a, Ethyl 2-(9,10-dioxo-9H-pyrrolizino[1,2-b]quinolin-4(10H)-yl)acetate], the IC50 is less than 0.05 mM in [1]; 0.05 to 5 mM in assay [2]; 0.05 to 5 mM in assay [3]; 0.05 to 5 mM in assay [4]; 0.05 to 5 mM in assay [5]; 1 to 10 µM with NF-κB. Also, the IC50 was 1 to 10 µM in assay [6], 5 to 20 mM with BHK-21 cells and 0.05 to 5 mM in assay [7].

Turning to `CCOC(=O)COc1c2c(nc3ccccc13)-c1cccn1C2=O` [Compound 654b, ethyl 2-((10-oxo-10H-pyrrolizino[1,2-b]quinolin-9-yl)oxy)acetate], the IC50 is less than 0.05 mM in [1]; 0.05 to 5 mM in assay [2]; 0.05 to 5 mM in assay [3]; 0.05 to 5 mM in [4]; 0.05 to 5 mM in [5]; 1 to 10 µM in the assay with NF-κB. The IC50 in assay [6] was 1 to 10 µM; in the assay on BHK-21 cells it was 0.05 to 5 mM; in assay [7], 0.05 to 5 mM.

For the molecule `CC(C)(C)Cn1c2c(c(=O)c3ccccc31)C(=O)n1cccc1-2` [Compound 656a, 4-Neopentyl-9H-pyrrolizino[1,2-b]quinoline-9,10(4H)-dione], the IC50 in assay [1] was in the range of 0.05 to 5 mM; in assay [2], 0.05 to 5 mM; in assay [3], 0.05 to 5 mM; in assay [4] it was 0.05 to 5 mM; in assay [5], 0.05 to 5 mM; with NF-κB, 1 to 10 µM. The IC50 in assay [6] was 1 to 10 µM; with BHK-21 cells, 0.05 to 5 mM; in assay [7], 0.05 to 5 mM.

`CC(C)(C)COc1c2c(nc3ccccc13)-c1cccn1C2=O` [Compound 656b, 9-(neopentyloxy)-10H-pyrrolizino[1,2-b]quinolin-10-one]: the IC50 in assay [1] was 0.05 to 5 mM; in assay [2], 0.05 to 5 mM; in [3], 0.05 to 5 mM; in assay [4], 0.05 to 5 mM; in [5] it was 0.05 to 5 mM; with NF-κB, 1 to 10 µM. Also, the IC50 is 1 to 10 µM in assay [6], 0.05 to 5 mM with BHK-21 cells and 0.05 to 5 mM in [7].

Regarding `O=C1c2c(n(CC(F)(F)F)c3ccccc3c2=O)-c2cccn21` [Compound 657a, 4-(2,2,2-Trifluoroethyl)-9H-pyrrolizino[1,2-b]quinoline-9,10(4H)-dione], the IC50 in assay [1] lay in the range of 0.05 to 5 mM; in [2] it was 0.05 to 5 mM; in assay [3] it was 0.05 to 5 mM; in [4] it was 0.05 to 5 mM; in assay [5] it was 0.05 to 5 mM; in the assay with NF-κB, 0.1 to 1 µM. In addition, the IC50 is 1 to 10 µM in assay [6], 0.05 to 5 mM with BHK-21 cells and 0.05 to 5 mM in assay [7].

Take `O=C1c2c(nc3ccccc3c2OCC(F)(F)F)-c2cccn21` [Compound 657b, 9-(2,2,2-trifluoroethoxy)-10H-pyrrolizino[1,2-b]quinolin-10-one]: the IC50 in [1] lay in the range of 0.05 to 5 mM; in [2] it was 0.05 to 5 mM; in assay [3], 0.05 to 5 mM; in [4], 0.05 to 5 mM; in assay [5] it was 0.05 to 5 mM; in the assay on NF-κB, 10 to 50 µM. The IC50 in assay [6] was 1 to 10 µM; with BHK-21 cells, 0.05 to 5 mM; in assay [7], 0.05 to 5 mM.

`CN(C)CCCn1c2c(c(=O)c3ccccc31)C(=O)n1cccc1-2` [Compound 658a, 4-(3-(Dimethylamino)propyl)-9H-pyrrolizino[1,2-b]quinoline-9,10(4H)-dione]: the IC50 in [1] lay in the range of 0.05 to 5 mM; in assay [2], 0.05 to 5 mM; in assay [3], 0.05 to 5 mM; in assay [4], 0.05 to 5 mM; in assay [5], 0.05 to 5 mM; with NF-κB, 0.001 to 0.1 µM. For the same molecule, the IC50 was in the range of 1 to 10 µM in [6], 0.05 to 5 mM in the assay on BHK-21 cells and 0.05 to 5 mM in [7].

As for `CN(C)CCCOc1c2c(nc3ccccc13)-c1cccn1C2=O` [Compound 658b, 9-(3-(dimethylamino)propoxy)-10H-pyrrolizino[1,2-b]quinolin-10-one], the IC50 in assay [1] lay within 0.05 to 5 mM; in assay [2], 0.05 to 5 mM; in assay [3] it was 0.05 to 5 mM; in assay [4], 0.05 to 5 mM; in assay [5] it was 0.05 to 5 mM; in the assay on NF-κB it was 1 to 10 µM. Also, the values for the IC50 (in [6]; with BHK-21 cells; in [7]) were 1 to 10 µM, 0.05 to 5 mM and 0.05 to 5 mM, respectively.

In the case of `CS(=O)(=O)CCCn1c2c(c(=O)c3ccccc31)C(=O)n1cccc1-2` [Compound 659a, 4-(3-(Methylsulfonyl)propyl)-9H-pyrrolizino[1,2-b]quinoline-9,10(4H)-dione], the IC50 in assay [1] lay within 0.05 to 5 mM; in assay [2], 0.05 to 5 mM; in assay [3] it was 0.05 to 5 mM; in [4], 0.05 to 5 mM; in assay [5], 0.05 to 5 mM; in the assay on NF-κB, 1 to 10 µM. The IC50 in assay [6] is 1 to 10 µM; with BHK-21 cells, 0.05 to 5 mM; in [7] it was 0.05 to 5 mM.
